The test system of experiment [1] is MV-4-11 cells. The experiment in a line: Combination study with Ara-C in MV-4-11 cells (CellTiter-Glo). As to conditions: 48 h. The experiment is classed as cell-based, human. The method, then: Human biphenotypic B myelomonocytic leukemia MV-4-11 cells (ATCC, Manassas, Va.) treated with test compounds at 2e5 cells/ml in IMDM medium containing 10% (v/v) FBS (Life Technologies, Grand Island, N.Y.) and 1×Pen/Strep Amphotericin B (Lonza, Allendale, N.J.). The final concentration of a test compound was set at a concentration previously determined to be its EC50 and Y3 EC50 values, while the combination test drug (Arabinofuranosyl Cytidine (Ara-C))(Sigma, St. Louis, Mo.) was assayed in serially-diluted 9-point concentrations against this background. Cells were treated for 48 h at 37° C. in a humidified atmosphere at 5% CO2. Cell viability was then determined indirectly via ATP content using the CellTiter-Glo® luminescent cell viability assay (Promega, Madison, Wis.) as per the manufacturer's instructions as follows: Briefly, experimental plates were equilibrated at room temperature for 30 minutes. An equal volume of CellTiter-Glo reagent was added to each well and incubated for 15 minutes at room temperature. Luminescent signal was read using the Wallac 1420 Victor2 multilabel microplate reader (Perkin Elmer, Waltham, Mass.).

The target of another experiment is T1, ERK5 (Homo sapiens, UniProt Q13164).
T1 construct: screened for activity against several kinases in Jurkat cells; endogenous in cells; host or cells: Jurkat cell lysate
T1 sequence (Q13164 whole entry): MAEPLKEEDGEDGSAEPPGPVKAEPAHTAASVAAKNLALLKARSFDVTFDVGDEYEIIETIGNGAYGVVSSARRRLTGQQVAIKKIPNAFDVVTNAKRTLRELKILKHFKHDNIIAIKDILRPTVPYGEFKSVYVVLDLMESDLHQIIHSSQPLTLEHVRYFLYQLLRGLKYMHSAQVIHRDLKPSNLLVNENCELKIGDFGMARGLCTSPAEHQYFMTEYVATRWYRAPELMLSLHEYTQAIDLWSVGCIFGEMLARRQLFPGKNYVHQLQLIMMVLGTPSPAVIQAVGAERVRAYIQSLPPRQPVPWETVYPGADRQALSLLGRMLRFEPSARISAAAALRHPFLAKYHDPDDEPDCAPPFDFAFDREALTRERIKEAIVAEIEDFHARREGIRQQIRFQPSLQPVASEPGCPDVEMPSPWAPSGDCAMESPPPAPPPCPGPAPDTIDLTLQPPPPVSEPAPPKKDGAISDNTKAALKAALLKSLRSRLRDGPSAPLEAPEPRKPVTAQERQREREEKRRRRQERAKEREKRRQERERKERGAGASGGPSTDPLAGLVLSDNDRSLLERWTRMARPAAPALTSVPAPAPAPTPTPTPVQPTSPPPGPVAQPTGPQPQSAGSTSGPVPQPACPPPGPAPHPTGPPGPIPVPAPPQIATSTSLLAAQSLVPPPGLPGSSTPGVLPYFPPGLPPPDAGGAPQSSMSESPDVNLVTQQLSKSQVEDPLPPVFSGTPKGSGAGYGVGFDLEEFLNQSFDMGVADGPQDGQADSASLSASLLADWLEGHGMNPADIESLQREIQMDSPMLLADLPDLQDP
The experiment in a line: Probe-based (AX9989 acyl phosphate ATP probe) kinase profiling in Jurkat lysate: ERK5. The experiment is classed as binding. In a few lines: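 Gel-filtered Jurkat lysate (5 mg/ml, 20 mM MnCl2) preincubated 15 min at room temperature with compound, then labelled with 5 μM AX9989 acyl phosphate ATP probe. Probe-labelled ERK5 active-site peptides quantified by LC/MS after trypsin digestion and streptavidin capture; IC50 calculated from percent inhibition at the screening concentration.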

A further experiment deals with ABL or ARG. The experiment in a line: Probe-based (AX9989) kinase profiling in Jurkat lysate: ABL or ARG. The format is binding. As to conditions: screening concentration 10.0 μM. The method, boiled down:
(§1)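 Jurkat lysate, HEPES pH 7.5 buffer + 20 mM MnCl2; cpd 15 min RT; AX9989 ATP probe 5 μM final, RT. Trypsin digest, streptavidin capture, LC/MS; % inhibition vs vehicle from labeled-peptide signal.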

For another experiment, the target named is T2, TAO2 (Homo sapiens, UniProt Q9UL54).
T2 construct: screened for activity against several kinases in Jurkat cells; endogenous in cells; host or cells: Jurkat cell lysate
T2 sequence (Q9UL54 1-1235): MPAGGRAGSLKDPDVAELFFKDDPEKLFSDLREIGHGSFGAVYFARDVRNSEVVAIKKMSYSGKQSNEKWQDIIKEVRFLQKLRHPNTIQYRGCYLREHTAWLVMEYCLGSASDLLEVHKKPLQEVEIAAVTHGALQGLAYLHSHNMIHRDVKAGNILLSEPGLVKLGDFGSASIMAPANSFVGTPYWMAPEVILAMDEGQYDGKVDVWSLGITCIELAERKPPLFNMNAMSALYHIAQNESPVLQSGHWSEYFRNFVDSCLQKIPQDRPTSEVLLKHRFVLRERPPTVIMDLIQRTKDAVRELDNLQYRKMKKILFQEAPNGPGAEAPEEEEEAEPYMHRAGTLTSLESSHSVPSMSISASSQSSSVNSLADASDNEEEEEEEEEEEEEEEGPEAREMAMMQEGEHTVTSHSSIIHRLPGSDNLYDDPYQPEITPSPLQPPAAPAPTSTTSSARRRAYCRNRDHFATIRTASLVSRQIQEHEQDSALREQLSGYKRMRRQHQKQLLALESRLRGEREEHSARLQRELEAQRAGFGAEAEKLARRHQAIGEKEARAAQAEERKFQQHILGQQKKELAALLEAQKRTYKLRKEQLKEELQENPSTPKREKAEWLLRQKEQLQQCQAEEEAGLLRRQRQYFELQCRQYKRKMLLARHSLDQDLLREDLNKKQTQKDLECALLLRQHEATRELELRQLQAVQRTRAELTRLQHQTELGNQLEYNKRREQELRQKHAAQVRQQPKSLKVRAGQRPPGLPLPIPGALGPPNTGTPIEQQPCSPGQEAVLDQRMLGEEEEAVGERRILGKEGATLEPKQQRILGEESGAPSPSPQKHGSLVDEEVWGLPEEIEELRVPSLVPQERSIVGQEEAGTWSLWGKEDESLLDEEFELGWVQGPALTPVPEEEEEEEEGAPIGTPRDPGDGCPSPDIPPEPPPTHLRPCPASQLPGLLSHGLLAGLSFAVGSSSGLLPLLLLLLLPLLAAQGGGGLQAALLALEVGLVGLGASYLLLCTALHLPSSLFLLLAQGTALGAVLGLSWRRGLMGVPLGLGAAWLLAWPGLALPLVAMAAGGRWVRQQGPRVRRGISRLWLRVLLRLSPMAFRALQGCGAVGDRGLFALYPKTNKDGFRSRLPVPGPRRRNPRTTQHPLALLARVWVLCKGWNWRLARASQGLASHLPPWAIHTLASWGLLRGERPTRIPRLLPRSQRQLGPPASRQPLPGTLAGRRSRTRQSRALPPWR
In words: Probe-based (AX9989) kinase profiling in Jurkat lysate: TAO2. The experiment is classed as binding. As to conditions: screening concentration 10.0 μM; read-out: Kinase inhibition % at indicated screening concentration: TAO2. The method, boiled down:
as §1

Experiment [2] concerns MV-4-11 cells. The experiment in a line: MV-4-11 proliferation EC50 assay (CellTiter-Glo). The experiment is classed as cell-based. As to conditions: Homo sapiens, MV4-11, 48 h, read-out: MV-4-11 proliferation EC50, ave. ± S.D. The method, then: Human biphenotypic B myelomonocytic leukemia MV-4-11 cells (ATCC, Manassas, Va.) were treated with test compounds at 2e5 cells/ml in IMDM medium containing 10% (v/v) FBS (Life Technologies, Grand Island, N.Y.) and 1×Pen/Strep Amphotericin B (Lonza, Allendale, N.J.). Compounds were tested at 25 μM down by ⅓ in a 9 point serial dilution series. Cells were incubated for 48 h at 37° C. in a humidified atmosphere at 5% CO2. MV-4-11 cell proliferation was then indirectly determined via cellular ATP content using the CellTiter-Glo® Luminescent Cell Viability Assay (Promega, Madison, Wis.) as per the manufacturer's instructions. Briefly, experimental plates were equilibrated at room temperature for 30 minutes. An equal volume of CellTiter-Glo® reagent was added to each well and incubated for 15 minutes at room temperature. Luminescent signal was read using the Wallac 1420 Victor^2 multilabel microplate reader (Perkin Elmer, Waltham, Mass.). EC50 values were determined using GraphPad Prism software v5.04.
(In ATP-based viability assays light output follows the ATP content of the culture.)

The test system of another experiment is AMPKa1 or AMPKa2. In words: Probe-based (AX9989) kinase profiling in Jurkat lysate: AMPKa1 or AMPKa2. The format is binding. As to conditions: screening concentration 10.0 μM. In a few lines:
as §1

In the next experiment the target is T3, ACK (Homo sapiens, UniProt Q07912).
T3 construct: screened for activity against several kinases in Jurkat cells; endogenous in cells; host or cells: Jurkat cell lysate
T3 sequence (Q07912 whole entry): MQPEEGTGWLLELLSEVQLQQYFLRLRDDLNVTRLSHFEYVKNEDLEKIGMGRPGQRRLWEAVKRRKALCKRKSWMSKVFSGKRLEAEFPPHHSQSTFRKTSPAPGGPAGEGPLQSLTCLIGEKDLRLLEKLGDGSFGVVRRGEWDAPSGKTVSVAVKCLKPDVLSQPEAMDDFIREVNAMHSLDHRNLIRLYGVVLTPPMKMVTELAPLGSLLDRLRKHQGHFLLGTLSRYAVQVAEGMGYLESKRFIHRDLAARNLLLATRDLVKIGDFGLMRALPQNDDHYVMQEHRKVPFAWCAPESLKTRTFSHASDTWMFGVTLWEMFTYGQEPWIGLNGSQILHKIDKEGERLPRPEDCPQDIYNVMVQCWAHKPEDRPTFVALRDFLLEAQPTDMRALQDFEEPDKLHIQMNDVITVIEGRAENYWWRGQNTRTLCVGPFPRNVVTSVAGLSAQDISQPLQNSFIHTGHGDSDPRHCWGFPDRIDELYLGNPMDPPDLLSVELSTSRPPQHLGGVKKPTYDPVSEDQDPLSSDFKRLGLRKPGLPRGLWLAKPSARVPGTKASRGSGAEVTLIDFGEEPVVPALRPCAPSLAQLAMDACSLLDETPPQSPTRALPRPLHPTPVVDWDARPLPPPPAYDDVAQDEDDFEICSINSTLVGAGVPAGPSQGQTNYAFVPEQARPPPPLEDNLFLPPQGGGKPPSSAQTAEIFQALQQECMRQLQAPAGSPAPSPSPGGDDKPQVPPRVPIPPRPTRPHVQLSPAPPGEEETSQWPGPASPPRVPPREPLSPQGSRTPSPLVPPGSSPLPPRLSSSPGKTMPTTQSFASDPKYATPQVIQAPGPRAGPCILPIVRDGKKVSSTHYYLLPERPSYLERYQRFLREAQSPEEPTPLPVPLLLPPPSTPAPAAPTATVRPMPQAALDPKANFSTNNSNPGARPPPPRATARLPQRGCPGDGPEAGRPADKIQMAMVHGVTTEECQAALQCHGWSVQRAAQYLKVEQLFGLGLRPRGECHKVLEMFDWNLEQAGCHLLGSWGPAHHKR
In words: Probe-based (AX9989) kinase profiling in Jurkat lysate: ACK. The format is binding. As to conditions: screening concentration 10.0 μM; read-out: Kinase inhibition % at indicated screening concentration: ACK. In a few lines:
as §1

In a further experiment the target is T4, AurA (Homo sapiens, UniProt O14965).
T4 construct: screened for activity against several kinases in Jurkat cells; endogenous in cells; host or cells: Jurkat cell lysate
T4 sequence (O14965 1-403): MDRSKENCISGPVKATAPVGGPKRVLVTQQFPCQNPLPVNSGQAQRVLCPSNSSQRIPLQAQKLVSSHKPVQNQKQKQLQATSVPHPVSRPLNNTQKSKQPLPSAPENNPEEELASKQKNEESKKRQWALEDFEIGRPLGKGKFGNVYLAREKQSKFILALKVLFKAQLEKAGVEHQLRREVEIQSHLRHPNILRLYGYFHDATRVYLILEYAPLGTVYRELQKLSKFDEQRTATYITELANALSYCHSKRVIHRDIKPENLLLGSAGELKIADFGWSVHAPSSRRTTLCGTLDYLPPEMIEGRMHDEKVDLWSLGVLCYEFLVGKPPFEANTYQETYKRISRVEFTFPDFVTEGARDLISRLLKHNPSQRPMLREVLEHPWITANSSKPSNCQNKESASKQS
In words: Probe-based (AX9989) kinase profiling in Jurkat lysate: AurA. The format is binding. As to conditions: screening concentration 10.0 μM; read-out: Kinase inhibition % at indicated screening concentration: AurA. In a few lines:
as §1

A further experiment concerns the target T5, JAK1 (Homo sapiens, UniProt P23458).
T5 construct: screened for activity against several kinases in Jurkat cells; endogenous in cells; host or cells: Jurkat cell lysate
The experiment in a line: Probe-based (AX9989) kinase profiling in Jurkat lysate: JAK1. The format is binding. As to conditions: screening concentration 10.0 μM; read-out: Kinase inhibition % at indicated screening concentration: JAK1. The method, boiled down:
as §1

The test system of a further experiment is AurB or AurC. The experiment in a line: Probe-based (AX9989) kinase profiling in Jurkat lysate: AurB or AurC. The experiment is classed as binding. As to conditions: screening concentration 10.0 μM. The method, boiled down:
as §1

A value given as a limit tells only on which side of the number the result lay.

Data on 2 compounds can be found in patent US20170008888A1 (KYORIN PHARMACEUTICAL CO., LTD., priority 2014, published 2017).

As a reminder, the IC50 is the midpoint of a concentration-inhibition curve.

T5 sequence (P23458 whole entry): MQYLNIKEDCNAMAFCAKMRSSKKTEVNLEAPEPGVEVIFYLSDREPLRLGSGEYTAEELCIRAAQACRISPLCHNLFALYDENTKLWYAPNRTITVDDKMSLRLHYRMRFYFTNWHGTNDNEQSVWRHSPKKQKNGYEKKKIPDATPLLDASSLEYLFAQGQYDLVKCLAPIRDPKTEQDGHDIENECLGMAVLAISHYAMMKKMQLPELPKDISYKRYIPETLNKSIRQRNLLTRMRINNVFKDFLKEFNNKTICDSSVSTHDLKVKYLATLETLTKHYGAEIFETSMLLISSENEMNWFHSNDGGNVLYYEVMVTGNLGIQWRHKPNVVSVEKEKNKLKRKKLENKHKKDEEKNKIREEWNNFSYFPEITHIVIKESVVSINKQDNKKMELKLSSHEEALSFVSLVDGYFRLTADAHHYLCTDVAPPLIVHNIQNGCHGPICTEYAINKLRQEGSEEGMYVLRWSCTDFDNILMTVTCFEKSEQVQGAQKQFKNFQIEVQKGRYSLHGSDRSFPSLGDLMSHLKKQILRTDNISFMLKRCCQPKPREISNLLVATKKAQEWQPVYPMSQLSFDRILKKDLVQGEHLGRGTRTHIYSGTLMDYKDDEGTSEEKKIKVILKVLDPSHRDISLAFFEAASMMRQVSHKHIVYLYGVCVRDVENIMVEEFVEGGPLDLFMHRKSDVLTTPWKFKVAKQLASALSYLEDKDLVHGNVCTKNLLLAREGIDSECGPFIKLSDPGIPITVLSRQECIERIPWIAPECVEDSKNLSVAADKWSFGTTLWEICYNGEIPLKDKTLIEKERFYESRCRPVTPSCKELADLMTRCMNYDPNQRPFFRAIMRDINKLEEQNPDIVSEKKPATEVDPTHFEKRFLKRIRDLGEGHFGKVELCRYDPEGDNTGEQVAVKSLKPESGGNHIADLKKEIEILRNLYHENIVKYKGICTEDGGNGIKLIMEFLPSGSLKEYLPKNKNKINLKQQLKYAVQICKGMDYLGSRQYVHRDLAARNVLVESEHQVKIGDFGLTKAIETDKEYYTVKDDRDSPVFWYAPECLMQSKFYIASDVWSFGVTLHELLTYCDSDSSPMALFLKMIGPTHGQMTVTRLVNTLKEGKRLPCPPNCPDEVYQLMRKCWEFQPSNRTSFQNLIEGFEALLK

As for `Nc1ccn([C@@H]2O[C@H](CO)[C@@H](O)[C@@H]2O)c(=O)n1` [Ara-C], the EC50 worked out at 0.108 µM in the experiment with MV-4-11 cells [1] (read-out: EC50 (μM) of Ara-C in combination with a fixed concentration of compound 61 at EC50); 0.265 µM with MV-4-11 cells [1] (read-out: EC50 (μM) of Ara-C in combination with a fixed concentration of compound 61 at ⅓ EC50); 0.353 µM in the experiment on MV-4-11 cells [1] (read-out: EC50 (μM) of Ara-C, compound 61 not present).
For `CN1C(=O)c2ccccc2N(C)c2cc(Nc3ccc(N4CCC(O)CC4)cn3)ncc21` [Compound 4], on ERK5 (calculated from percent inhibition of AX9989 labeling and the screening concentration, Jurkat lysate), the IC50 was more than 500 nM. Moreover, the inhibition at 10 µM on ERK5 (screening concentration 10.0 μM, read-out: Kinase inhibition % at indicated screening concentration: ERK5) is 75 to 90%; at TAO2 it was 50 to 75%; at ACK, 75 to 90%; on AurA, more than 90%; on JAK1, 50 to 75%. In the experiment on ABL or ARG, the “Kinase inhibition % at indicated screening concentration: ABL or ARG” value is given as “C (C is >50% to ≦75%)”. The EC50 with MV-4-11 cells [2] came out at 60 nM. Besides, the “Kinase inhibition % at indicated screening concentration: AMPKa1 or AMPKa2” value with AMPKa1 or AMPKa2 was “C (C is >50% to ≦75%)”. Further, in the experiment with AurB or AurC, the “Kinase inhibition % at indicated screening concentration: AurB or AurC” value is listed as “A (A>90%)”.
